Columns and labels:
Assay type in all cases: physicochemical
Color tone of the dye = details: Tables 1-9
[1] = Solubility in toluene and methyl ethyl ketone, three-point scale
Description: In these tables, the solubility is rated on the three-point scale, wherein Δ stands for a solubility of less than 1% by weight, .largecircle. for a solubility in the approximate range of 1 to 3% by weight, and .circleincircle. for a solubility of not less than 3% by weight.

[2] = Visible absorption spectrum (λmax, ε); details: in chloroform; for ε: at λ max, in M-1 cm-1 (unit assumed)

Structure (SMILES)	Color tone (Color tone of the dye)	Solubility in methyl ethyl ketone [1]	Solubility in toluene [1]	λ max [2]	ε [2]
COc1ccc(Sc2c(F)c3c(c(F)c2Sc2ccc(OC)cc2)C(=O)c2c(O)ccc(O)c2C3=O)cc1 [(302)]	Cinnabar	.largecircle. (a solubility in the approximate range of 1 to 3% by weight)	.largecircle. (a solubility in the approximate range of 1 to 3% by weight)	504 nm	15100
CCCCNc1c(F)c2c(c(F)c1Nc1ccccc1)C(=O)c1c(O)ccc(O)c1C2=O [(229)]	Cyan	.largecircle. (a solubility in the approximate range of 1 to 3% by weight)	.largecircle. (a solubility in the approximate range of 1 to 3% by weight)	666 nm	15300
COc1cccc(Nc2c(F)c(F)c3c(c2F)C(=O)c2c(O)ccc(O)c2C3=O)c1 [(16)]	Magenta	.largecircle. (a solubility in the approximate range of 1 to 3% by weight)	.largecircle. (a solubility in the approximate range of 1 to 3% by weight)	532 nm	16300
CCCCCCCCSc1c(F)c2c(c(F)c1SCCCCCCCC)C(=O)c1c(O)ccc(O)c1C2=O [(304)]	Orange	.largecircle. (a solubility in the approximate range of 1 to 3% by weight)	.largecircle. (a solubility in the approximate range of 1 to 3% by weight)	504 nm	14600
CCCCCCCCOC(=O)c1cccc(Nc2c(F)c(F)c3c(c2F)C(=O)c2c(O)ccc(O)c2C3=O)c1 [(8)]	Magenta	.largecircle. (a solubility in the approximate range of 1 to 3% by weight)	.largecircle. (a solubility in the approximate range of 1 to 3% by weight)	526 nm	17600
CCOC(=O)c1cccc(Nc2c(F)c3c(c(F)c2Nc2cccc(C(=O)OCC)c2)C(=O)c2c(O)ccc(O)c2C3=O)c1 [(121)]	Cyan	.largecircle. (a solubility in the approximate range of 1 to 3% by weight)	.largecircle. (a solubility in the approximate range of 1 to 3% by weight)	644 nm	20100
O=C(O)c1c(F)c(F)c(Sc2c(F)c3c(c(F)c2Sc2c(F)c(F)c(C(=O)O)c(F)c2F)C(=O)c2c(O)ccc(O)c2C3=O)c(F)c1F [(299)]	Cinnabar	Δ (a solubility of less than 1% by weight)	Δ (a solubility of less than 1% by weight)	510 nm	12600
CC(C)(C)c1ccc(Nc2c(F)c(F)c3c(c2F)C(=O)c2c(O)ccc(O)c2C3=O)cc1 [(13)]	Magenta	.largecircle. (a solubility in the approximate range of 1 to 3% by weight)	.largecircle. (a solubility in the approximate range of 1 to 3% by weight)	540 nm	11900
CCCCOC(=O)c1ccccc1Nc1c(F)c(F)c2c(c1F)C(=O)c1c(O)ccc(O)c1C2=O [(5)]	Magenta	.circleincircle. (a solubility of not less than 3% by weight)	.circleincircle. (a solubility of not less than 3% by weight)	530 nm	8600
COc1ccccc1Nc1c(F)c(F)c2c(c1F)C(=O)c1c(O)ccc(O)c1C2=O [(14)]	Purple	.largecircle. (a solubility in the approximate range of 1 to 3% by weight)	.largecircle. (a solubility in the approximate range of 1 to 3% by weight)	557 nm	15300
COc1cccc(Nc2c(F)c3c(c(F)c2Nc2cccc(OC)c2)C(=O)c2c(O)ccc(O)c2C3=O)c1 [(133)]	Cyan	.largecircle. (a solubility in the approximate range of 1 to 3% by weight)	.largecircle. (a solubility in the approximate range of 1 to 3% by weight)	651 nm	13400
O=C1c2c(O)ccc(O)c2C(=O)c2c(F)c(Sc3ccc(O)cc3)c(Sc3ccc(O)cc3)c(F)c21 [(301)]	Cinnabar	.largecircle. (a solubility in the approximate range of 1 to 3% by weight)	.largecircle. (a solubility in the approximate range of 1 to 3% by weight)	514 nm	12900
CCCCNc1c(F)c2c(c(F)c1Nc1ccc(OC)cc1)C(=O)c1c(O)ccc(O)c1C2=O [(228)]	Cyan	.largecircle. (a solubility in the approximate range of 1 to 3% by weight)	.largecircle. (a solubility in the approximate range of 1 to 3% by weight)	666 nm	22800
N#Cc1c(F)c(F)c(Sc2c(F)c3c(c(F)c2Sc2c(F)c(F)c(C#N)c(F)c2F)C(=O)c2c(O)ccc(O)c2C3=O)c(F)c1F [(300)]	Cinnabar	Δ (a solubility of less than 1% by weight)	Δ (a solubility of less than 1% by weight)	521 nm	13200
O=C1c2c(O)ccc(O)c2C(=O)c2c(Nc3ccccc3)c(Sc3ccccc3)c(Sc3ccccc3)c(Nc3ccccc3)c21 [(297)]	Cyan	.largecircle. (a solubility in the approximate range of 1 to 3% by weight)	.largecircle. (a solubility in the approximate range of 1 to 3% by weight)	692 nm	15900
CCCCNc1c(F)c2c(c(F)c1Nc1cccc(C(=O)OCC)c1)C(=O)c1c(O)ccc(O)c1C2=O [(227)]	Cyan	.largecircle. (a solubility in the approximate range of 1 to 3% by weight)	.largecircle. (a solubility in the approximate range of 1 to 3% by weight)	661 nm	21000
COc1ccc(Nc2c(F)c(F)c3c(c2F)C(=O)c2c(O)ccc(O)c2C3=O)cc1 [(15)]	Magenta	.largecircle. (a solubility in the approximate range of 1 to 3% by weight)	.largecircle. (a solubility in the approximate range of 1 to 3% by weight)	542 nm	10200
CC(C)(C)Sc1c(F)c2c(c(F)c1SC(C)(C)C)C(=O)c1c(O)ccc(O)c1C2=O [(305)]	Orange	.circleincircle. (a solubility of not less than 3% by weight)	.circleincircle. (a solubility of not less than 3% by weight)	506 nm	15300
COc1ccccc1Nc1c(F)c2c(c(F)c1Nc1ccccc1OC)C(=O)c1c(O)ccc(O)c1C2=O [(131)]	Cyan	.largecircle. (a solubility in the approximate range of 1 to 3% by weight)	.largecircle. (a solubility in the approximate range of 1 to 3% by weight)	661 nm	15600
O=C1c2c(O)ccc(O)c2C(=O)c2c(F)c(Nc3ccccc3)c(Nc3ccccc3)c(F)c21 [(120)]	Cyan	Δ (a solubility of less than 1% by weight)	Δ (a solubility of less than 1% by weight)	648 nm	19800
CCCCNc1c(F)c(F)c2c(c1F)C(=O)c1c(O)ccc(O)c1C2=O [(117)]	Magenta	.largecircle. (a solubility in the approximate range of 1 to 3% by weight)	.largecircle. (a solubility in the approximate range of 1 to 3% by weight)	533 nm	17900
CC(C)(C)c1ccc(Nc2c(F)c3c(c(F)c2Nc2ccc(C(C)(C)C)cc2)C(=O)c2c(O)ccc(O)c2C3=O)cc1 [(130)]	Cyan	.largecircle. (a solubility in the approximate range of 1 to 3% by weight)	.largecircle. (a solubility in the approximate range of 1 to 3% by weight)	660 nm	26700
O=C1c2c(O)ccc(O)c2C(=O)c2c(F)c(NC3CCCCC3)c(F)c(F)c21 [(119)]	Magenta	.largecircle. (a solubility in the approximate range of 1 to 3% by weight)	.largecircle. (a solubility in the approximate range of 1 to 3% by weight)	536 nm	24500
CC(C)c1cccc(C(C)C)c1Nc1c(F)c(F)c2c(c1F)C(=O)c1c(O)ccc(O)c1C2=O [(25)]	Magenta	.largecircle. (a solubility in the approximate range of 1 to 3% by weight)	.circleincircle. (a solubility of not less than 3% by weight)	530 nm	12800
Nc1c(Sc2ccccc2)c(Sc2ccccc2)c(F)c2c1C(=O)c1c(O)ccc(O)c1C2=O [(296)]	Purple	.largecircle. (a solubility in the approximate range of 1 to 3% by weight)	.largecircle. (a solubility in the approximate range of 1 to 3% by weight)	542 nm	12300
N#Cc1ccc(Nc2c(F)c3c(c(F)c2Nc2ccc(C#N)cc2)C(=O)c2c(O)ccc(O)c2C3=O)cc1 [(126)]	Blue	Δ (a solubility of less than 1% by weight)	Δ (a solubility of less than 1% by weight)	605 nm	16600
